# Experimental data from patent US11214567B2, “Small molecule inhibitors of MYC and uses thereof” (The Regents of the University of Michigan, priority 2017, dated 2022).
# How the values were obtained:
# [1] = tested on: C-MYC; assay: Western blotting of C-MYC protein levels in cancer cells; type: cell-based, human; settings: NCI/ADR-RES cells; 0.5 μM; positive control
# Description: Cells (5×10^5) were cultured in 6-well plate and treated with KJA03 at designated concentrations. After treatment, cells were lysed with cell lysis buffer on ice at 4° C., sonicated for 3 min, centrifuged (12,000 rpm, 10 min, 4° C.) and then, the supernatant was collected. Protein concentrations of supernatants were evaluated with BCA assay. Proteins were resolved in 10% SDS/PAGE and electrotransferred to Immun-Blot PVDF membrane (Bio-Rad). After blocking with 5% milk in TBST (Tris-buffered saline with 0.1% Tween 20), membranes were probed with primary antibodies (anti-PARP, anti-caspase 3 and anti-GAPDH) 1:1000 dilutions overnight at 4° C. Membranes were then washed with TBST (5 min×3), incubated with Dylight 800-conjugated secondary antibodies 1:7500 dilutions in 5% milk for 1 h at room temperature, and washed with TBST (5 min×3). Fluorescent signal was then scanned by Odyssey Imaging Systems (LI-COR Biosciences).
# The effect of KJA03 on the MYC protein levels, including C-MYC and N-MYC, NCI/ADR-RES cells were treated with KJA03 at concentration of 0.1 (half IC50) and 0.2 (IC50) μM for 24 and 48 h. […] It has previously been reported that JQ1 treatment leads to down-regulation of c-MYC protein levels in osteosarcoma, leukemia and lymphoma cells (see, e.g., Mertz, J. A.; et al., Proceedings of the National Academy of Sciences 2011, 108, 16669-16674).
# Experiments were conducted to further repeat the experiment and JQ1 was chosen as a positive control. As expected, expression of C-MYC was reduced by KJA03 at 24 h of treatment, correlated with previous experiment (FIG. 3).
# Experiments were conducted that further performed a time-course experiment to evaluate C-MYC suppression including 2, 6, 8 24 and 48 h at concentration of 0.2 μM. To define the specificity of MYC suppression in further detail, we treated cells with a range of compound concentrations at 24 h. […] To determine whether KJA03 can suppress C-MYC in different cell lines, we next investigated the level of C-MYC in response to treatment with KJA03 at 0.2 μM using other three different OVCAR8, MIA PaCa-2 and Panc-1 cell lines.
# [2] = tested on: c-MYC; settings: osteosarcoma, leukemia and lymphoma cells; cited from earlier work
# [3] = tested on: NCI/ADR-RES; assay: MTT assay (cytotoxicity), NCI/ADR-RES; type: cell-based, human; settings: Homo sapiens, NCI/ADR-RES; MTT, 72 h; drug concentration causing a 50% decrease in cell population
# Description: (§1) The evaluation of cytotoxicity was based on the reduction of MTT dye by viable cells to give purple formazan products, which can be measured spectrophotometrically at 540 nm. One hundred eighty microliters of cancer cells were seeded into 96-well plates at 3,500-4,000 cells/well and incubated at 37° C. overnight before the indicated treatments. After 72 h, 20 μl of MTT solution (3 mg/ml) was added and incubated again for 3 h. After removal of media and solubilization of formazan crystals in 150 μL of DMSO, the absorbance was measured at 570 nm. Percentage of cell growth inhibition was expressed as 1-[(A−B)/(C−B)]×100% (A, B and C were the absorbance values from experimental, blank and control cells, respectively).
# (§2) KJA derivatives were tested by the MTT assay against five human cancer cell lines including ovarian cancer cell lines (OVCAR-8, NCI/ADR-RES and SKOV3) and pancreatic cancer cell lines (MIA PaCa-2 and Pac-1). […] It is important to note that the NCI/ADR-RES cell line shares a large number of karyotypic abnormalities with OVCAR-8 but expresses high levels of MDR1 (multidrug resistance protein 1)/P-glycoprotein (see, e.g., Xu, S.; et al., Proceedings of the National Academy of Sciences 2012, 109, 16348-16353), resulting in resistance to multiple anticancer drugs in clinical use, including paclitaxel and doxorubicin.
# [4] = tested on: OVCAR8; assay: MTT assay (cytotoxicity), OVCAR8; type: cell-based; settings: Homo sapiens, OVCAR-8, 72 h, drug concentration causing a 50% decrease in cell population
# Description: as §1, §2
# [5] = tested on: MIA PaCa-2; assay: MTT assay (cytotoxicity), MIA PaCa-2; type: cell-based; settings: Homo sapiens, 72 h, drug concentration causing a 50% decrease in cell population
# Description: as §1, §2
# [6] = tested on: SKOV3; assay: MTT assay (cytotoxicity), SKOV3; type: cell-based; settings: Homo sapiens, SK-OV-3, 72 h, drug concentration causing a 50% decrease in cell population
# Description: as §1, §2
# [7] = tested on: Panc1; assay: MTT assay (cytotoxicity), Panc1; type: cell-based; settings: Homo sapiens, PANC-1, 72 h, drug concentration causing a 50% decrease in cell population
# Description: as §1, §2
Compound,C-MYC expression [1],c-MYC protein levels [2],IC50 [3] [µM],IC50 [4] [µM],IC50 [5] [µM],IC50 [6] [µM],IC50 [7] [µM]
"Cc1sc2c(c1C)C(c1ccc(Cl)cc1)=N[C@@H](CC(=O)OC(C)(C)C)c1nnc(C)n1-2 [JQ1, reference compound]",did not inhibit C-MYC expression,down-regulation,,,,,
"O=c1onc(-c2ccccc2)n1-c1ccccc1-c1nc(-c2ccccc2)no1 [KJA01, 3-Phenyl-4-(2-(3-phenyl-1,2,4-oxadiazol-5-yl)phenyl)-1,2,4-oxadiazol-5(4H)-one]",,,4.31 ± 0.55,4.65 ± 2.05,2.49,5.82,2.16
"O=c1onc(-c2ccc(Cl)cc2)n1-c1ccccc1-c1nc(-c2ccc(Cl)cc2)no1 [KJA02, 3-(4-Chlorophenyl)-4-(2-(3-(4-chlorophenyl)-1,2,4-oxadiazol-5-yl)phenyl)-1,2,4-oxadiazol-5(4H)-one]",,,4.16 ± 2.61,1.96 ± 0.42,1.12,11.2,1.51
"O=c1onc(-c2ccc(F)cc2)n1-c1ccccc1-c1nc(-c2ccc(F)cc2)no1 [KJA04, 3-(4-Fluorophenyl)-4-(2-(3-(4-fluorophenyl)-1,2,4-oxadiazol-5-yl)phenyl)-1,2,4-oxadiazol-5(4H)-one]",,,7.63 ± 3.01,7.21 ± 1.55,5.17,20.9,3.22
"COc1cc(-c2nc(-c3ccccc3)no2)c(-n2c(-c3ccccc3)noc2=O)cc1OC [KJA06, 4-(4,5-Dimethoxy-2-(3-phenyl-1,2,4-oxadiazol-5-yl)phenyl)-3-phenyl-1,2,4-oxadiazol-5(4H)-one]",,,> 30,> 30,> 30,> 30,> 30
"COc1cc(-c2nc(-c3ccc(Cl)cc3)no2)c(-n2c(-c3ccc(Cl)cc3)noc2=O)cc1OC [KJA09, 3-(4-Chlorophenyl)-4-(2-(3-(4-chlorophenyl)-1,2,4-oxadiazol-5-yl)-4,5-dimethoxyphenyl)-1,2,4-oxadiazol-5(4H)-one]",,,> 30,> 30,> 30,> 30,> 30
"COc1cc(-c2nc(-c3ccccc3Cl)no2)c(-n2c(-c3ccccc3Cl)noc2=O)cc1OC [KJA10, 3-(2-Chlorophenyl)-4-(2-(3-(2-chlorophenyl)-1,2,4-oxadiazol-5-yl)-4,5-dimethoxyphenyl)-1,2,4-oxadiazol-5(4H)-one]",,,2 ± 0.76,0.71 ± 0.08,0.71,3.23 ± 0.37,1.08
"O=c1onc(-c2ccccc2F)n1-c1ccccc1-c1nc(-c2ccccc2F)no1 [KJA17, 3-(2-Fluorophenyl)-4-(2-(3-(2-fluorophenyl)-1,2,4-oxadiazol-5-yl)phenyl)-1,2,4-oxadiazol-5(4H)-one]",,,9.42 ± 1.61,9.12 ± 0.88,1.43,25.6,3.17
"CC(=O)O[C@H]1C(=O)[C@@]2(C)[C@H]([C@H](OC(=O)c3ccccc3)[C@]3(O)C[C@H](OC(=O)[C@H](O)[C@@H](NC(=O)c4ccccc4)c4ccccc4)C(C)=C1C3(C)C)[C@]1(OC(C)=O)CO[C@@H]1C[C@@H]2O [Paclitaxel, reference compound]",,,> 30,< 0.04,< 0.04,,< 0.04
